#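 Cells were grown in 96-well plates and exposed to each compound for 48 hours at five concentrations; endpoints were interpolated linearly between bracketing concentrations, or set to the highest concentration if not reached. GI50 is the concentration that inhibits growth by half. TGI denotes the concentration required for complete inhibition of growth.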
# Tests used:
# Assay in all cases: NCI-60 cell line screen, 48 h
# UO-31 renal = test system: UO-31 renal
# KM12 colon = test system: KM12 colon
# HCC-2998 colon = test system: HCC-2998 colon
# NCI-H226 lung = test system: NCI-H226 lung
# HT29 colon = test system: HT29 colon
# SF-295 CNS = test system: SF-295 CNS
# HCT-116 colon = test system: HCT-116 colon
# SF-268 CNS = test system: SF-268 CNS
# PC-3 prostate = test system: PC-3 prostate
# MCF7 breast = test system: MCF7 breast
Structure (SMILES),GI50 (UO-31 renal),TGI (UO-31 renal),GI50 (KM12 colon),TGI (KM12 colon),GI50 (HCC-2998 colon),TGI (HCC-2998 colon),GI50 (NCI-H226 lung),TGI (NCI-H226 lung),GI50 (HT29 colon),TGI (HT29 colon),GI50 (SF-295 CNS),TGI (SF-295 CNS),GI50 (HCT-116 colon),TGI (HCT-116 colon),TGI (SF-268 CNS),GI50 (SF-268 CNS),GI50 (PC-3 prostate),TGI (PC-3 prostate),GI50 (MCF7 breast),TGI (MCF7 breast)
CCC[CH2][Sn]1([CH2]CCC)[O]C(c2ccccn2)S(=O)(=O)[O]1 (configuration not stated),13.6 µM,26.6 µM,12.7 µM,26 µM,4.63 µM,18.3 µM,16.2 µM,30 µM,3.79 µM,12.2 µM,2.94 µM,8.26 µM,11 µM,22.9 µM,–,–,–,–,–,–
OCCN1CCN(CCO)Cc2ccccc2OCCOc2ccccc2C1,–,> 100 µM,–,> 100 µM,–,–,–,> 100 µM,–,> 100 µM,–,–,–,> 100 µM,> 100 µM,–,–,–,–,–
CC1=CC(=O)C(C)(C2=NC(C)(C)CO2)c2ccccc21 (configuration not stated),–,> 100 µM,–,> 100 µM,–,–,–,> 100 µM,–,> 100 µM,–,> 100 µM,–,> 100 µM,> 100 µM,–,–,–,–,–
CCN1C(C)=NC2C(=O)c3ccccc3C(=O)C21 (configuration not stated),–,> 100 µM,–,–,–,79.3 µM,–,> 100 µM,–,> 100 µM,–,> 100 µM,–,> 100 µM,> 100 µM,–,–,–,–,–
CC1(C)CC23C(=O)N(c4ccccc4)C(=Nc4ccccc4)NC2=CC(C#N)=C(C#N)C3O1 (configuration not stated),–,> 100 µM,–,> 100 µM,–,> 100 µM,–,88.8 µM,–,> 100 µM,–,> 100 µM,–,> 100 µM,> 100 µM,–,–,–,–,–
COc1cccc(/C=C(/C(=O)O)c2cc(OC)c(OC)c(OC)c2)c1,–,> 100 µM,–,> 100 µM,–,–,–,> 100 µM,–,> 100 µM,–,> 100 µM,–,> 100 µM,> 100 µM,–,–,–,–,–
CS(=O)(=O)c1ccc(N/N=C/c2c(-c3ccc(S(C)(=O)=O)cc3)[nH]c3ccc(F)cc23)cc1,2.16 µM,> 50 µM,2.84 µM,> 50 µM,10.8 µM,> 50 µM,–,–,2.08 µM,> 50 µM,0.934 µM,1.89 µM,2.68 µM,> 50 µM,> 50 µM,3.4 µM,2.18 µM,> 50 µM,1.59 µM,> 50 µM
CC(C#N)c1cn(S(=O)(=O)c2ccccc2)c2ccccc12 (configuration not stated),–,62.4 µM,–,> 100 µM,–,> 100 µM,–,> 100 µM,–,> 100 µM,–,> 100 µM,–,> 100 µM,> 100 µM,–,–,–,–,–
C/C(CC(=O)CCCC(=O)Nc1ccc(Cl)cc1Cl)=N/NC(=O)CC#N,–,> 100 µM,–,> 100 µM,–,> 100 µM,–,> 100 µM,–,> 100 µM,–,> 100 µM,–,> 100 µM,> 100 µM,–,–,–,–,–
C/C(=N\O)c1sc(-n2nc(-c3ccccc3)cc2-c2ccccc2)nc1C,–,15.3 µM,–,17.3 µM,–,18.2 µM,–,17.6 µM,–,19 µM,–,20.2 µM,–,17.1 µM,19.8 µM,–,–,–,–,–
CC[O-].CC[O-].[O-]c1ccccc1C=Nc1ccccc1.[O-]c1ccccc1C=Nc1ccccc1.[Ti+4],> 100 µM,> 100 µM,26.7 µM,> 100 µM,82.9 µM,> 100 µM,> 100 µM,> 100 µM,> 100 µM,> 100 µM,> 100 µM,> 100 µM,31.8 µM,> 100 µM,> 100 µM,> 100 µM,–,–,–,–
CC(=O)[CH-]C(=O)c1ccccc1.CC(=O)[CH-]C(=O)c1ccccc1.O=C([O-])C[O-].O=C([O-])C[O-].[Ti+4],71.4 µM,> 100 µM,21.7 µM,69.2 µM,40.3 µM,> 100 µM,19.4 µM,73 µM,27.7 µM,91.7 µM,50.7 µM,> 100 µM,21.8 µM,> 100 µM,> 100 µM,> 100 µM,–,–,–,–
O=C1c2ccccc2C(=O)N1/N=C\c1ccc(Br)cc1,> 100 µM,> 100 µM,> 100 µM,> 100 µM,> 100 µM,> 100 µM,> 100 µM,> 100 µM,> 100 µM,> 100 µM,> 100 µM,> 100 µM,> 100 µM,> 100 µM,> 100 µM,> 100 µM,–,–,–,–
Cc1cc(C)c(C(=O)O)c(N)c1O,–,> 100 µM,–,> 100 µM,–,> 100 µM,–,> 100 µM,–,> 100 µM,–,> 100 µM,–,> 100 µM,> 100 µM,–,–,–,–,–
